These results are taken from patent publication US11827628B2, “Compositions and methods for inhibition of the JAK pathway” (Rigel Pharmaceuticals, Inc., priority 2005, dated 2023).

Where a name gives a salt, the structure may show the parent alone.

In the assay the test system is up-regulation of ICAM-1 (CD54) by IFNγ in A549 lung epithelial cells. The assay can be described thus: A549 Epithelial Line Stimulated with IFNγ (ICAM-1 surface expression, FACS). As to conditions: Homo sapiens, A549, A549 cells stimulated with IFNγ, ICAM-1 expression by FACS; read-out: IC50, Example 43. In kind it is cell-based, human. The text has this:
The activity of the compounds of the invention may additionally be characterized by assaying the effect of the 2,4-substituted pyrimidinediamine compounds described herein on A549 lung epithelial cells and U937 cells. A549 lung epithelial cells and U937 cells up-regulate ICAM-1 (CD54) surface expression in response to a variety of different stimuli. Therefore, using ICAM-1 expression as readout, test compound effects on different signaling pathways can be assessed in the same cell type. Stimulation with IL-1β through the IL-1β receptor activates the TRAF6/NFκB pathway resulting in up-regulation of ICAM-1. IFNγ induces ICAM-1 up-regulation through activation of the JAK1/JAK2 pathway. The up-regulation of ICAM-1 can be quantified by flow cytometry across a compound dose curve and EC50, values are calculated. An exemplary assays of this type are described in greater detail in Examples 43 and 44
A549 lung epithelial cells up-regulate ICAM-1 (CD54) surface expression in response to a variety of different stimuli. Therefore, using ICAM-1 expression as readout, compound effects on different signaling pathways can be assessed in the same cell type. IFNγ up-regulates ICAM-1 through activation of the JAK/Stat pathway. In this example, the up-regulation of ICAM-1 by IFNγ was assessed.
The A549 lung epithelial carcinoma cell line originated from the American Type Culture Collection. Routine culturing was with F12K media (Mediatech Inc., Lenexa, KS, Cat. No. 10-025-CV) with 10% fetal bovine serum, 100 I.U. penicillin and […] streptomycin (complete F12k media). Cells were incubated in a humidified atmosphere of 5% CO2 at 37° C. Prior to use in the assay, A549 cells were washed with PBS and trypsinized (Mediatech Inc., Cat. No. 25-052-CI) to lift the cells. The trypsin cell suspension was neutralized with complete F12K media and centrifuged to pellet the cells. The cell pellet was resuspended in complete F12K media at a concentration of 2.0×10^5/mL. Cells were seeded at 20,000 per well, 100 μL total volume, in a flat bottom tissue culture plate and allowed to adhere overnight.
On day two, A549 cells were pre-incubated with a 2,4-substituted pyrimidinediamine test compound or DMSO (control) (Sigma-Aldrich, St. Louis, MO, Catalog No. D2650) for 1 hour. The cells were then stimulated with IFNγ (75 ng/mL) (Peprotech Inc., Rocky Hill, NJ, Cat. No. 300-02) and allowed to incubate for 24 hours. The final test compound dose range was 30 μM to 14 nM in 200 μL F12K media containing 5% FBS, 0.3% DMSO.
On day three, the cell media was removed and the cells were washed with 200 μL PBS (phosphate buffered saline). Each well was trypsinized to dissociate the cells, then neutralized by addition of 200 μL complete F12K media. Cells were pelleted and stained with an APC conjugated mouse anti-human ICAM-1 (CD54) (BD Pharmingen, San Diego, CA, Catalog #559771) antibody for 20 minutes at 4° C. Cells were washed with ice cold FACS buffer (PBS+2% FBS) and surface ICAM-1 expression was analyzed by flow cytometry. Detection was performed using a BD LSR I System Flow Cytometer, purchased from BD Biosciences of San Jose, California Events were gated for live scatter and the geometric mean was calculated (Becton-Dickinson CellQuest software version 3.3, Franklin Lakes, NJ). Geometric means were plotted against the compound concentration to generate a dose response curve.
`N#CCN1C(=O)COc2ccc(Nc3nc(Nc4cccc(S(N)(=O)=O)c4)ncc3F)cc21` [Compound V-7, N2-(3-Aminosulphonylphenyl)-5-fluoro-N4-(3-oxo-4-cyanomethyl-benz[1,4]oxazin-6-yl]-2,4-pyrimidinediamine]: the IC50 stood at 5 µM. Next, `Cc1ccc(Nc2ncc(F)c(Nc3ccc4c(c3)N(CC#N)C(=O)CO4)n2)cc1S(N)(=O)=O` [Compound V-8, N2-(3-Aminosulphonyl-4-methylphenyl)-5-fluoro-N4-[3-oxo-4-cyanomethyl-benz[1,4]oxazin-6-yl]-2,4-pyrimidinediamine]: 5.21 µM; `N#CCN1C(=O)CSc2ccc(Nc3nc(Nc4cccc(S(N)(=O)=O)c4)ncc3F)cc21` [Compound V-12, N2-(3-Aminosulphonylphenyl)-5-fluoro-N4-(3-oxo-4-cyanomethyl-benzo[1,4]thiazin-6-yl)-2,4-pyrimidinediamine]: 54 µM; `Cc1ccc(Nc2ncc(F)c(Nc3ccc4c(c3)N(CC#N)C(=O)CS4)n2)cc1S(N)(=O)=O` [Compound V-13, N2-(3-Aminosulphonyl4-methylphenyl)-5-fluoro-N4-(3-oxo-4-cyanomethyl-benzo[1,4]thiazin-6-yl)-2,4-pyrimidinediamine]: 6.87 µM. To `NS(=O)(=O)c1cccc(Nc2ncc(F)c(Nc3ccc(Cc4ccncc4)cc3)n2)c1` [III-128, N2-(3-Aminosulfonylphenyl)-5-fluoro-N4-[4-(4-pyridylmethyl)phenyl]-2,4-pyrimidinediamine p-Toluenesulfonic Acid Salt] belongs 28.1 µM. To `NS(=O)(=O)c1cccc(Nc2ncc(F)c(Nc3ccc(-c4cnco4)cc3)n2)c1` [IV-5, N2-(3-Aminosulfonylphenyl)-5-fluoro-N4-[4-(1,3-oxazol-5-yl)phenyl]-2,4-pyrimidinediamine] belongs 16.1 µM.

With `C#CCn1ccc2cc(Nc3nc(Nc4ccc(C)c(S(N)(=O)=O)c4)ncc3F)ccc21` [IX-1, N2-(3-Aminosulfonyl-4-methylphenyl)-5-fluoro-N4-[1-(propyn-3-yl)indol-5-yl]-2,4-pyrimidinediamine], the IC50 was 4.88 µM. To `N#CCc1c[nH]c2ccc(Nc3nc(Nc4cccc(S(N)(=O)=O)c4)ncc3F)cc12` [IX-13, N2-(3-Aminosulfonylphenyl)-N4-(3-cyanomethyl-1H-indol-5-yl)-5-fluoro-2,4-pyrimidinediamine] belongs 30.3 µM; to `Cc1ccc(Nc2ncc(F)c(Nc3ccc4[nH]cc(CC#N)c4c3)n2)cc1S(N)(=O)=O` [IX-14, N2-(3-Aminosulfonyl-4-methylphenyl)-N4-(3-cyanomethyl-1H-indol-5-yl)-5-fluoro-2,4-pyrimidinediamine], 3.38 µM; to `Cc1ccc(Nc2ncc(F)c(Nc3ccc(Cl)c(Cl)c3)n2)cc1S(N)(=O)=O` [VI-6, N2-(3-Aminosulfonyl-4-methylphenyl)-N4-(3,4-dichlorophenyl)-5-fluoro-2,4-pyrimidinediamine], 15 µM. On to `COc1cc(Nc2nc(Nc3ccc(Cl)c(S(N)(=O)=O)c3)ncc2F)ccc1Cl` [VI-11, N2-(3-Aminosulfonyl-4-chlorophenyl)-N4-(4-chloro-3-methoxyphenyl)-5-fluoro-2,4-pyrimidinediamine], for which the half-maximal inhibitory concentration (IC50) came out at 47.1 µM.

With `COc1ccc(Nc2nc(Nc3cc(Cl)c(C)c(S(N)(=O)=O)c3)ncc2F)cc1Cl` [VI-13, N2-(3-Aminosulfonyl-5-chloro-4-methylphenyl)-N4-(3-chloro-4-methoxyphenyl)-5-fluoro-2,4-pyrimidinediamine], the IC50 is 8.23 µM. For the molecule `COc1ccc(Nc2nc(Nc3cc(C)c(Cl)c(S(N)(=O)=O)c3)ncc2F)cc1Cl` [VI-17, N2-(3-Aminosulfonyl-4-chloro-5-methylphenyl)-N4-(3-chloro-4-methoxyphenyl)-5-fluoro-2,4-pyrimidinediamine], the IC50 is 6.42 µM. Turning to `COc1ccc(Nc2nc(Nc3cccc(S(N)(=O)=O)c3)ncc2Br)cc1Cl` [VI-26, N2-(3-aminosulfonylphenyl)-5-bromo-N4-(3-chloro-4-methoxyphenyl)-2,4-pyrimidinediamine], the half-inhibitory concentration (IC50) was 1.7 µM. Take `COc1c(C)cc(Nc2ncc(F)c(Nc3ccc(C(C)(C)C)cc3)n2)cc1S(N)(=O)=O` [VI-37, N2-(3-Aminosulfonyl-4-methoxy-5-methylphenyl)-N4-(4-tert-butylphenyl)-5-fluoro-2,4-pyrimidinediamine]: the 50% inhibitory concentration (IC50) was 12.4 µM.

For the molecule `COc1ccc(Nc2nc(Nc3ccc(C(C)C)c(S(N)(=O)=O)c3)ncc2F)cc1Cl` [VI-45, N2-(3-Aminosulfonyl-4-iso-propylphenyl)-N4-(3-chloro-4-methoxy-phenyl)-5-fluoro-2,4-pyrimidinediamine], the IC50 was 10.5 µM.

In the case of `Cc1ccc(Nc2ncc(F)c(Nc3ccc(CO)cc3)n2)cc1S(N)(=O)=O` [VI-52, N2-(3-Aminosulfonyl-4-methylphenyl)-5-fluoro-N4-(4-hydroxymethylphenyl)-2,4-pyrimidinediamine], the IC50 was found to be 5.92 µM. For `C#CCOc1ccc(Nc2nc(Nc3ccc(C)c(S(N)(=O)=O)c3)ncc2F)cc1` [VI-53, N2-(3-Aminosulfonyl-4-methylphenyl)-5-fluoro-N4-[4-(prop-2-ynyloxy)phenyl]-2,4-pyrimidinediamine], the IC50 was determined as 11.3 µM. Next, `C=Cc1ccc(Nc2nc(Nc3ccc(C)c(S(N)(=O)=O)c3)ncc2F)cc1` [VI-54, N2-(3-Aminosulfonyl-4-methylphenyl)-5-fluoro-N4-(4-vinylphenyl)-2,4-pyrimidinediamine]: 31 µM; `C#CCOc1ccc(Nc2nc(Nc3ccc(C)c(S(N)(=O)=O)c3)ncc2F)cc1Cl` [VI-59, N2-(3-Aminosulfonyl-4-methylphenyl)-N4-[3-chloro-4-(prop-2-ynyloxy)phenyl]-5-fluoro-2,4-pyrimidinediamine]: 4.98 µM.

On to `C#CCOc1ccc(Nc2nc(Nc3ccc(C)c(S(N)(=O)=O)c3)ncc2F)cc1F` [VI-60, N2-(3-Aminosulfonyl-4-methylphenyl)-5-fluoro-N4-[3-fluoro-4-(prop-2-ynyloxy)phenyl]-2,4-pyrimidinediamine], for which the concentration for half-maximal inhibition (IC50) stood at 3.85 µM. As to `CC#CCOc1ccc(Nc2nc(Nc3ccc(C)c(S(N)(=O)=O)c3)ncc2F)cc1` [VI-61, N2-(3-Aminosulfonyl-4-methylphenyl)-N4-[4-(but-2-ynyloxy)phenyl]-5-fluoro-2,4-pyrimidinediamine], the 50% inhibitory concentration (IC50) worked out at 3.11 µM. To `C#CCNc1ccc(Nc2nc(Nc3ccc(C)c(S(N)(=O)=O)c3)ncc2F)cc1` [VI-65, N2-(3-Aminosulfonyl-4-methylphenyl)-5-fluoro-N4-[4-(prop-2-ynylamino)phenyl]-2,4-pyrimidinediamine] belongs 4.13 µM; to `C#CCOc1ccc(Nc2nc(Nc3ccc(C)c(S(=O)(=O)NC)c3)ncc2F)cc1` [VI-68, 5-Fluoro-N2-(4-methyl-3-methylaminosulfonylphenyl)-N4-[4-(prop-2-ynyloxy)phenyl]-2,4-pyrimidinediamine], 26.8 µM. For `NS(=O)(=O)c1cccc(Nc2ncc(F)c(Nc3ccc(CCCF)cc3)n2)c1` [VI-83, N2-(3-Aminosulfonylphenyl)-5-fluoro-N4-[4-(3-fluoropropyl)phenyl]-2,4-pyrimidinediamine], the IC50 is 7.3 µM. Next, `Cc1ccc(Nc2ncc(F)c(Nc3ccc(CCCF)cc3)n2)cc1S(N)(=O)=O` [VI-84, N2-(3-Aminosulfonyl-4-methylphenyl)-5-fluoro-N4-[4-(3-fluoropropyl)phenyl]-2,4-pyrimidinediamine]: 4.58 µM; `NS(=O)(=O)c1ccc(Nc2ncc(F)c(Nc3ccc(CCCO)cc3)n2)cc1` [VI-85, N2-(4-Aminosulfonylphenyl)-5-fluoro-N4-[4-(3-hydroxypropyl)phenyl]-2,4-pyrimidinediamine]: 24.7 µM.

For orientation: IC50 means the point on the concentration scale where inhibition reaches its midpoint.
